What was measured:
Test in all cases: radiometric filter-binding kinase assay, Kinase HotSpot
Conditions in all cases: compound 0.5 µM; ATP 10 µM
[1] = target: NUAK1 (human) (UniProt O60285)
[2] = target: PLK2 (human) (UniProt Q9NYY3)
[3] = target: EPHA8 (human) (UniProt P29322)
[4] = target: BTK (human) (UniProt Q06187)
[5] = target: FGFR3 (human) (UniProt P22607)
[6] = target: STK11 (human) (UniProt Q15831)
[7] = target: PHKG1 (human) (UniProt Q16816)
[8] = target: TYRO3 (human) (UniProt Q06418)
[9] = target: CSNK1D (human) (UniProt P48730)
[10] = target: CAMK2A (human) (UniProt Q9UQM7)
[11] = target: TSSK2 (human) (UniProt Q96PF2)
[12] = target: PLK1 (human) (UniProt P53350)
[13] = target: CSNK1G1 (human) (UniProt Q9HCP0)
[14] = target: JAK2 JH1 JH2 (human) (UniProt O60674)
[15] = target: NEK11 (human) (UniProt Q8NG66)
[16] = target: MAP3K3 (human) (UniProt Q99759)
[17] = target: CLK3 (human) (UniProt P49761)
[18] = target: SIK2 (human) (UniProt Q9H0K1)
[19] = target: PRKX (human) (UniProt P51817)
[20] = target: MUSK (human) (UniProt O15146)
[21] = target: EPHA1 (human) (UniProt P21709)
[22] = target: PIM1 (human) (UniProt P11309)
[23] = target: FGFR2 (human) (UniProt P21802)
[24] = target: MARK2 (human) (UniProt Q7KZI7)
[25] = target: EPHB3 (human) (UniProt P54753)
[26] = target: GSK3A (human) (UniProt P49840)
[27] = target: ACVRL1 (human) (UniProt P37023)
[28] = target: MERTK (human) (UniProt Q12866)
[29] = target: WNK2 (human) (UniProt Q9Y3S1)
[30] = target: SGK3 (human) (UniProt Q96BR1)
[31] = target: CSNK1G3 (human) (UniProt Q9Y6M4)
[32] = target: CSNK1E (human) (UniProt P49674)
[33] = target: DDR2 (human) (UniProt Q16832)
[34] = target: MATK (human) (UniProt P42679)
[35] = target: NTRK2 (human) (UniProt Q16620)
[36] = target: MAP4K2 (human) (UniProt Q12851)
[37] = target: PIM3 (human) (UniProt Q86V86)
[38] = target: HCK (human) (UniProt P08631)
[39] = target: STK17A (human) (UniProt Q9UEE5)
[40] = target: MST1R (human) (UniProt Q04912)
[41] = target: NEK4 (human) (UniProt P51957)
[42] = target: DYRK3 (human) (UniProt O43781)

NEK11 (human), sequence (Q8NG66 whole entry, looked up): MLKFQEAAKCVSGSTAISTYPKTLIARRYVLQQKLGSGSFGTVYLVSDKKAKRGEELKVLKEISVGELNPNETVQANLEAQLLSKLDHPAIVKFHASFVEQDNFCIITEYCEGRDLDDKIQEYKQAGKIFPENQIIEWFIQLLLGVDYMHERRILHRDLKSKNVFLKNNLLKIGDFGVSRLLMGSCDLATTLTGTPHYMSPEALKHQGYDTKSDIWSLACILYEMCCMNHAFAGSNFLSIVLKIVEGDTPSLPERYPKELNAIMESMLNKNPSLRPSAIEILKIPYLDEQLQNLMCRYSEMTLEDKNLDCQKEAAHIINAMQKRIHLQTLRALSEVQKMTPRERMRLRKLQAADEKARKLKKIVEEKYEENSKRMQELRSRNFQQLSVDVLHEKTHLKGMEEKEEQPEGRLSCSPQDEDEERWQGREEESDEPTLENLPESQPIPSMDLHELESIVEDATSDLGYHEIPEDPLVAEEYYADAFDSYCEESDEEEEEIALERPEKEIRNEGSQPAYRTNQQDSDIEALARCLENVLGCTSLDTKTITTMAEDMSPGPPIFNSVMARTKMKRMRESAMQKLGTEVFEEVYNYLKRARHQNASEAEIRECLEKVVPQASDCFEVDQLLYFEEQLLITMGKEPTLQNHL
MATK (human), sequence (P42679 whole entry, looked up): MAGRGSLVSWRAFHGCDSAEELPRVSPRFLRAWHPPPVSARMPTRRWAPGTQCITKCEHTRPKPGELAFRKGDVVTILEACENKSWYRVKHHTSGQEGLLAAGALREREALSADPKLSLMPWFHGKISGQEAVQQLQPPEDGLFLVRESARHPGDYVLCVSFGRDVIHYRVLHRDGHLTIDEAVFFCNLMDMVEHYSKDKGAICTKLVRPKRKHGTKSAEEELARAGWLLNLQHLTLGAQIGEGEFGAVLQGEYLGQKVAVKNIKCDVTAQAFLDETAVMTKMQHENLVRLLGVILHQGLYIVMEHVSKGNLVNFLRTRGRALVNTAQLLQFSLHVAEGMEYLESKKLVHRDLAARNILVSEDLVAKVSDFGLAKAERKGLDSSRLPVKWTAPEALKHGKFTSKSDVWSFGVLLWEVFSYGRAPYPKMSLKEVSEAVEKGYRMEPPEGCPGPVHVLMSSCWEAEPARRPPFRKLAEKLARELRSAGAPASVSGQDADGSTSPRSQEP
JAK2 JH1 JH2 (human), sequence (O60674 whole entry, looked up): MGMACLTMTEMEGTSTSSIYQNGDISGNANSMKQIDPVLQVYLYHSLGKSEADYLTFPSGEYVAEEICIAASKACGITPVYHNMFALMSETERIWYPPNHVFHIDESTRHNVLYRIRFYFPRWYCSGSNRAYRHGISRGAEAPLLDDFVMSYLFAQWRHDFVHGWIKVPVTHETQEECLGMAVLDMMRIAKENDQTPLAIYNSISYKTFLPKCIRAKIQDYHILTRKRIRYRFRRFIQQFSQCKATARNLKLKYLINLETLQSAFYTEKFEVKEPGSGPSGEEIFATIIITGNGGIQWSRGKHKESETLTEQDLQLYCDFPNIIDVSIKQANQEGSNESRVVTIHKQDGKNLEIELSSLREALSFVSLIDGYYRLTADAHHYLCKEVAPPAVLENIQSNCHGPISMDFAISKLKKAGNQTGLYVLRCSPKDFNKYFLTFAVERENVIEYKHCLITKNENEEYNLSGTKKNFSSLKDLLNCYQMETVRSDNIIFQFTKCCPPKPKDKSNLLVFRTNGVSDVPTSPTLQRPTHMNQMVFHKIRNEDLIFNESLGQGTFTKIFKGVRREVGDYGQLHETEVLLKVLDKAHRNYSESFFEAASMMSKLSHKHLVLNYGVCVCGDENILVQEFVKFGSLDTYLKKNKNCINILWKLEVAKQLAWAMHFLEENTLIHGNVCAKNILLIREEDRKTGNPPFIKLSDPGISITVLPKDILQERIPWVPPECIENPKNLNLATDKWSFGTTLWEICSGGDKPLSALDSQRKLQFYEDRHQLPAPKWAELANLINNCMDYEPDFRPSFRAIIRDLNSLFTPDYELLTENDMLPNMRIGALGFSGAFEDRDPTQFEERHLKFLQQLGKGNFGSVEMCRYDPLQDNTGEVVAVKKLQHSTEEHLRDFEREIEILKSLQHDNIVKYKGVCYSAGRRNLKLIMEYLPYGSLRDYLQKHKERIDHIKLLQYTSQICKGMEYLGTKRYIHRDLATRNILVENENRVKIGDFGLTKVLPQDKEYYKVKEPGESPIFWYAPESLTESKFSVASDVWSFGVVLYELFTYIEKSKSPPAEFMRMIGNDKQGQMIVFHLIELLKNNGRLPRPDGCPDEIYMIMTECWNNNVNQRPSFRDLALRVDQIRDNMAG
PRKX (human), sequence (P51817 whole entry, looked up): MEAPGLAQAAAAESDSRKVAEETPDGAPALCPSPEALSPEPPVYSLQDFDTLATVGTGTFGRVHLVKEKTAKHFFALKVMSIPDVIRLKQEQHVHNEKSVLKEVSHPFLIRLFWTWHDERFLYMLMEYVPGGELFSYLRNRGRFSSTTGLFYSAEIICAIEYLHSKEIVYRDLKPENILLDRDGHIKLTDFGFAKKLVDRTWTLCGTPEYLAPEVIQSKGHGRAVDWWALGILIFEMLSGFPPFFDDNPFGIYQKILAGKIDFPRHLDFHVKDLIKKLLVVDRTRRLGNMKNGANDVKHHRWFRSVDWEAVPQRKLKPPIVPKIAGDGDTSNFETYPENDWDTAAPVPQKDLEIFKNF
FGFR3 (human), sequence (P22607 whole entry, looked up): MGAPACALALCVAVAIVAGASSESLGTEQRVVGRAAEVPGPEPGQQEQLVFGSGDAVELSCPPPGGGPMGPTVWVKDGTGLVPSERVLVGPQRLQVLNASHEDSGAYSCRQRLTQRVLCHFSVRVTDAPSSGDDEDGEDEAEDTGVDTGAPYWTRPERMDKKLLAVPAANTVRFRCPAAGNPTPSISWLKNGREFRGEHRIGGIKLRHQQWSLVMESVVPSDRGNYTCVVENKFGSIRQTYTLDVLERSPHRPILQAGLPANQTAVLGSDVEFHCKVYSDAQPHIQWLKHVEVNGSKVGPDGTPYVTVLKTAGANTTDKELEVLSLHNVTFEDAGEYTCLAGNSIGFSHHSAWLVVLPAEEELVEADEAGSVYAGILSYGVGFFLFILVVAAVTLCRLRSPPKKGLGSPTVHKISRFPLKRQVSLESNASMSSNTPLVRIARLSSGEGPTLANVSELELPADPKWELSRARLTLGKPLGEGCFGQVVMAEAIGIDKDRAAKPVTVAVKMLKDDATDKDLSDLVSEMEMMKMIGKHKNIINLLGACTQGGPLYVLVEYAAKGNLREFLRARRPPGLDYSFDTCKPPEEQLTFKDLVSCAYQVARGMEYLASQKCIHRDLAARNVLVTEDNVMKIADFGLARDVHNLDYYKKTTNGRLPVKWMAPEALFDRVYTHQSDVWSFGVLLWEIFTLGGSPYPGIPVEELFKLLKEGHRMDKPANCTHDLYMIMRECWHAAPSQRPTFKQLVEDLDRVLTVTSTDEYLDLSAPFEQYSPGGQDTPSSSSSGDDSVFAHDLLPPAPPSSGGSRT
PHKG1 (human), sequence (Q16816 whole entry, looked up): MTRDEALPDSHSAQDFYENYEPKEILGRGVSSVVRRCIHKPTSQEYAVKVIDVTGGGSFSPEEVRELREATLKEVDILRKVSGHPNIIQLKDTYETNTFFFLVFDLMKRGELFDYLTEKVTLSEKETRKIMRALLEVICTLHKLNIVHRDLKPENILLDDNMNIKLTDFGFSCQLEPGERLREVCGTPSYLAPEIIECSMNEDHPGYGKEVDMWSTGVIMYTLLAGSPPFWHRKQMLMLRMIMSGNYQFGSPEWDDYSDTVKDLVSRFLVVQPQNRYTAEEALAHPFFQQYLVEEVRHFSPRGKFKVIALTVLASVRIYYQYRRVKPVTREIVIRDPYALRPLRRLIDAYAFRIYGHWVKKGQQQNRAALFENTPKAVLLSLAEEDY
MARK2 (human), sequence (Q7KZI7 whole entry, looked up): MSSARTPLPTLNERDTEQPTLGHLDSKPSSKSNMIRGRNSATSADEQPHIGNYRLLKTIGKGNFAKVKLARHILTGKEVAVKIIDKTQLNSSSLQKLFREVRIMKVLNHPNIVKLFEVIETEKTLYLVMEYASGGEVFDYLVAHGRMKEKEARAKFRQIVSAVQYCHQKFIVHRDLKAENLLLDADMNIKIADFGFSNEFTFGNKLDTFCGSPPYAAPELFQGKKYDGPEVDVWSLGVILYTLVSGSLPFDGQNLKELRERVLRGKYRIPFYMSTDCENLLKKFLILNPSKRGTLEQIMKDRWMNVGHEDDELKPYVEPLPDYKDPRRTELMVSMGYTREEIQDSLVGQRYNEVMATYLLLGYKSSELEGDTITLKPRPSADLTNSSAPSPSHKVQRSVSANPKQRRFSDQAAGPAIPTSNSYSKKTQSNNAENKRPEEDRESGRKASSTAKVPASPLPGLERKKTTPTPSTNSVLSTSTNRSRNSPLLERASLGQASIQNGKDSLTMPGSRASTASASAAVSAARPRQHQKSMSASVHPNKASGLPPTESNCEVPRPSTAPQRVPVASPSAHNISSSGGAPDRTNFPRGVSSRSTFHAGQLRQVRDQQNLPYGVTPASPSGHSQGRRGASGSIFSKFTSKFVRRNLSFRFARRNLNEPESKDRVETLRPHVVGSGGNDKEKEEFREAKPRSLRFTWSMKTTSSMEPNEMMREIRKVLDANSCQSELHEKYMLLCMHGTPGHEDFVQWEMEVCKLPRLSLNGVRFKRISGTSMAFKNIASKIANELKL
TSSK2 (human), sequence (Q96PF2 whole entry, looked up): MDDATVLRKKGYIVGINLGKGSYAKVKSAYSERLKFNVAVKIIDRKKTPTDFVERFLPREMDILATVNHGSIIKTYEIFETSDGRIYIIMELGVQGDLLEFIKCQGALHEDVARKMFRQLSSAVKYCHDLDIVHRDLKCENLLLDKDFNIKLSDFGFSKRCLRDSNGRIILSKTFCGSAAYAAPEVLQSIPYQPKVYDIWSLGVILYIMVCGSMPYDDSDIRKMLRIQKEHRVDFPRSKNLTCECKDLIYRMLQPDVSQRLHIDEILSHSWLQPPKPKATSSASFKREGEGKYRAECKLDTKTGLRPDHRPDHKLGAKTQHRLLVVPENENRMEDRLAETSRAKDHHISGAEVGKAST

Nc1ccc2ncnc(NCCc3ccc(Oc4ccccc4)cc3)c2c1
residual activity [1]: 94.7% | residual activity [2]: 102% | residual activity [3]: 101% | residual activity [4]: 96.8% | residual activity [5]: 101% | residual activity [6]: 97.6% | residual activity [7]: 96.4% | residual activity [8]: 101% | residual activity [9]: 100% | residual activity [10]: 71.3% | residual activity [11]: 94.5% | residual activity [12]: 91.1% | residual activity [13]: 97.6% | residual activity [14]: 103% | residual activity [15]: 105% | residual activity [16]: 106% | residual activity [17]: 117% | residual activity [18]: 97.4% | residual activity [19]: 104% | residual activity [20]: 102% | residual activity [21]: 86.6% | residual activity [22]: 102% | residual activity [23]: 95.5% | residual activity [24]: 84.9% | residual activity [25]: 97.3% | residual activity [26]: 110% | residual activity [27]: 93.5% | residual activity [28]: 102% | residual activity [29]: 96.7% | residual activity [30]: 106% | residual activity [31]: 96.8% | residual activity [32]: 148% | residual activity [33]: 96.8% | residual activity [34]: 89.6% | residual activity [35]: 104% | residual activity [36]: 100% | residual activity [37]: 104% | residual activity [38]: 96.4% | residual activity [39]: 96.9% | residual activity [40]: 97.2% | residual activity [41]: 97.8% | residual activity [42]: 89.6%

N#C/C(=C(/N)Sc1ccc(N)cc1)c1ccccc1C(F)(F)F
residual activity [1]: 95.9% | residual activity [2]: 98.1% | residual activity [3]: 94.1% | residual activity [4]: 93.5% | residual activity [5]: 98.5% | residual activity [6]: 102% | residual activity [7]: 95.8% | residual activity [8]: 110% | residual activity [9]: 106% | residual activity [10]: 111% | residual activity [11]: 94.2% | residual activity [12]: 92.6% | residual activity [13]: 89% | residual activity [14]: 98.7% | residual activity [15]: 97.7% | residual activity [16]: 97.7% | residual activity [17]: 103% | residual activity [18]: 101% | residual activity [19]: 98.9% | residual activity [20]: 91.9% | residual activity [21]: 100% | residual activity [22]: 99.7% | residual activity [23]: 101% | residual activity [24]: 124% | residual activity [25]: 96.7% | residual activity [26]: 110% | residual activity [27]: 106% | residual activity [28]: 80.7% | residual activity [29]: 109% | residual activity [30]: 105% | residual activity [31]: 103% | residual activity [32]: 95.9% | residual activity [33]: 102% | residual activity [34]: 90.7% | residual activity [35]: 103% | residual activity [36]: 85.7% | residual activity [37]: 111% | residual activity [38]: 93.9% | residual activity [39]: 82.6% | residual activity [40]: 90.4% | residual activity [41]: 95.9% | residual activity [42]: 105%

O=C1Nc2ccc(Cl)cc2/C1=C/c1cc(Cl)c(O)c(Cl)c1
residual activity [1]: 72.5% | residual activity [2]: 95.4% | residual activity [3]: 91.5% | residual activity [4]: 92.1% | residual activity [5]: 94% | residual activity [6]: 93.1% | residual activity [7]: 86.4% | residual activity [8]: 94.9% | residual activity [9]: 89.6% | residual activity [10]: 92.9% | residual activity [11]: 94.4% | residual activity [12]: 99.8% | residual activity [13]: 89% | residual activity [14]: 91.1% | residual activity [15]: 104% | residual activity [16]: 101% | residual activity [17]: 90.9% | residual activity [18]: 95% | residual activity [19]: 92.1% | residual activity [20]: 65.5% | residual activity [21]: 88.9% | residual activity [22]: 19.4% | residual activity [23]: 92% | residual activity [24]: 79.7% | residual activity [25]: 91% | residual activity [26]: 76.1% | residual activity [27]: 96.4% | residual activity [28]: 88.4% | residual activity [29]: 115% | residual activity [30]: 98.6% | residual activity [31]: 93% | residual activity [32]: 66.6% | residual activity [33]: 85.8% | residual activity [34]: 82.2% | residual activity [35]: 61.1% | residual activity [36]: 62.6% | residual activity [37]: 14.5% | residual activity [38]: 83.2% | residual activity [39]: 78.9% | residual activity [40]: 94.8% | residual activity [41]: 88.2% | residual activity [42]: 91.8%

CC[n+]1c(/C=C/N(C)c2ccccc2)n(-c2ccccc2)c2ccc(-c3nc4ccccc4s3)cc21
residual activity [1]: 96.1% | residual activity [2]: 93.1% | residual activity [3]: 96.3% | residual activity [4]: 91.6% | residual activity [5]: 88.4% | residual activity [6]: 93.1% | residual activity [7]: 96.1% | residual activity [8]: 103% | residual activity [9]: 104% | residual activity [10]: 103% | residual activity [11]: 98.4% | residual activity [12]: 110% | residual activity [13]: 104% | residual activity [14]: 98.8% | residual activity [15]: 91.6% | residual activity [16]: 109% | residual activity [17]: 114% | residual activity [18]: 112% | residual activity [19]: 108% | residual activity [20]: 94.7% | residual activity [21]: 77.1% | residual activity [22]: 102% | residual activity [23]: 100% | residual activity [24]: 91.6% | residual activity [25]: 102% | residual activity [26]: 103% | residual activity [27]: 110% | residual activity [28]: 96.5% | residual activity [29]: 112% | residual activity [30]: 102% | residual activity [31]: 92.4% | residual activity [32]: 105% | residual activity [33]: 97.4% | residual activity [34]: 96.4% | residual activity [35]: 97.8% | residual activity [36]: 103% | residual activity [37]: 98.8% | residual activity [38]: 104% | residual activity [39]: 96.9% | residual activity [40]: 94.4% | residual activity [41]: 90.5% | residual activity [42]: 98.7%
